Experimental data as given in patent US20070161592A1, “Method of treating fear” (priority 2005, published 2007).

Assays:
Type in all cases: cell-based, mouse
adult ACC neurons [1] = assay: LTP induced by EPSPs-APs protocol in ACC slices; conditions: 0.3 μM
Description: (§1) Coronal brain slices ([…]) from 6-8-week-old C57BL/6 mice, containing ACC or hippocampus, were prepared using standard methods (Wei et al., 2001). Slices were transferred to a submerged recovery chamber containing oxygenated (95% O2 and 5% CO2) artificial cerebrospinal fluid (ACSF) (in mM: 124 NaCl, 4.4 KCl, 2 CaCl2, 1 MgSO4, 25 NaHCO3, 1 NaH2PO4, 10 glucose) at room temperature for at least 1 h.
(§2) Experiments were performed in a recording chamber on the stage of an Axioskop 2FS microscope with infrared DIC optics for visualizing whole-cell patch clamp recordings. EPSCs were recorded from layer II-III neurons using an Axon 200B amplifier (Axon Instruments, CA) and stimulations were delivered using a bipolar tungsten stimulating electrode placed in layer V of the ACC. In hippocampal slices, EPSCs were evoked by stimulating the Schaffer collateral-commissural pathway. EPSCs were induced by repetitive stimulations at 0.02 Hz and neurons were voltage clamped at −70 mV. The recording pipettes (3-5 MΩ) were filled with solution containing (mM) 145 K-gluconate, 5 NaCl, 1 MgCl2, 0.2 EGTA, 10 HEPES, 2 Mg-ATP, and 0.1 Na3-GTP (adjusted to pH 7.2 with KOH). After obtaining stable EPSCs for 10 min, three kinds of LTP induction paradigms were used within 12 min after establishing the whole-cell configuration to prevent wash out effect on LTP induction (Tsvetkov et al., 2002). The first protocol involved paired presynaptic 80 pulses at 2 Hz with postsynaptic depolarization at +30 mV (referred to as pairing training). The second involved paired 3 presynaptic stimuli that caused 3 EPSPs (10 ms ahead) with 3 postsynaptic APs at 30 Hz, paired 15 times every 5 s (named as EPSPs-APs protocol). The third involved theta-burst stimulation (5 trains of burst with 4 pulses at 100 Hz, at 200 ms interval; repeated 4 times at intervals of 10 s; named as TBS). The NMDAR-mediated component of EPSCs was pharmacologically isolated in Mg^2+-free ACSF containing: CNQX (20 μM), glycine (1 μM) and picrotoxin (100 μM). The patch electrodes contained (in mM) 102 cesium gluconate, 5 TEA-chloride, 3.7 NaCl, 11 BAPTA, 0.2 EGTA, 20 HEPES, 2 MgATP, 0.3 NaGTP, and 5 QX-314 chloride (adjusted to pH 7.2 with CsOH). Neurons were voltage clamped at −60 mV and NMDARs-mediated EPSCs were evoked at 0.05 Hz. Picrotoxin (100 μM) was always present to block GABAA receptor-mediated inhibitory synaptic currents. The access resistance was 15-30 MΩ and was monitored throughout the experiment. Data were discarded if access resistance changed by more than 15% during an experiment. Results are expressed as means±SEM. Statistical comparisons were performed using the Student t-test. […]

adult ACC neurons [2] = assay: LTP induced by theta-burst stimulation (TBS) in ACC slices; conditions: 0.3 μM
Description: as §1, §2

[3] = tested on: NMDAR-mediated currents in the ACC; assay: NMDAR-mediated EPSCs in the ACC
Description: as §1
Experiments were performed in a recording chamber on the stage of an Axioskop 2FS microscope with infrared DIC optics for visualizing whole-cell patch clamp recordings. EPSCs were recorded from layer II-III neurons using an Axon 200B amplifier (Axon Instruments, CA) and stimulations were delivered using a bipolar tungsten stimulating electrode placed in layer V of the ACC. In hippocampal slices, EPSCs were evoked by stimulating the Schaffer collateral-commissural pathway. EPSCs were induced by repetitive stimulations at 0.02 Hz and neurons were voltage clamped at −70 mV. The recording pipettes (3-5 MΩ) were filled with solution containing (mM) 145 K-gluconate, 5 NaCl, 1 MgCl2, 0.2 EGTA, 10 HEPES, 2 Mg-ATP, and 0.1 Na3-GTP (adjusted to pH 7.2 with KOH). After obtaining stable EPSCs for 10 min, three kinds of LTP induction paradigms were used within 12 min after establishing the whole-cell configuration to prevent wash out effect on LTP induction (Tsvetkov et al., 2002). The first protocol involved paired presynaptic 80 pulses at 2 Hz with postsynaptic depolarization at +30 mV (referred to as pairing training). The second involved paired 3 presynaptic stimuli that caused 3 EPSPs (10 ms ahead) with 3 postsynaptic APs at 30 Hz, paired 15 times every 5 s (named as EPSPs-APs protocol). The third involved theta-burst stimulation (5 trains of burst with 4 pulses at 100 Hz, at 200 ms interval; repeated 4 times at intervals of 10 s; named as TBS). The NMDAR-mediated component of EPSCs was pharmacologically isolated in Mg^2+-free ACSF containing: CNQX (20 μM), glycine (1 μM) and picrotoxin (100 μM). The patch electrodes contained (in mM) 102 cesium gluconate, 5 TEA-chloride, 3.7 NaCl, 11 BAPTA, 0.2 EGTA, 20 HEPES, 2 MgATP, 0.3 NaGTP, and 5 QX-314 chloride (adjusted to pH 7.2 with CsOH). Neurons were voltage clamped at −60 mV and NMDARs-mediated EPSCs were evoked at 0.05 Hz. Picrotoxin (100 μM) was always present to block GABAA receptor-mediated inhibitory synaptic currents. The access resistance was 15-30 MΩ and was monitored throughout the experiment. Data were discarded if access resistance changed by more than 15% during an experiment. Results are expressed as means±SEM. Statistical comparisons were performed using the Student t-test.
One possible mechanism is that NR2B-containing receptors may contribute more to total NMDA currents in ACC synapses than in hippocampal synapses. […] Application of 0.1 μM or 0.4 μM NVP-AAM077 depressed total NMDAR-mediated currents by 59.0±4.3% (n=5) and 63.2±1.7% (n=6) in the ACC respectively (FIG. 5). On the other hand, application of 0.3 μM or 3 μM Ro25-6981 attenuated total NMDAR-mediated currents by 18.0±1.9% (n=5) and 18.1±3.4% (n=7) in the ACC respectively, showing that 0.3 μM Ro25-6981 was sufficient to block the NR2B-mediated currents (FIG. 5). This experiment was repeated in hippocampal CA1 neurons. […] However, unlike in the ACC, application of 0.3 μM Ro25-6981 alone potentiated, rather than blocked, total NMDAR-mediated currents by 51.3±16.4% in the hippocampus (FIG. 5).
The relative percentages of NR2A- and NR2B-mediated currents were determined by applying specific antagonists, NVP-AAM077 (0.4 μM) and Ro25-6981 (0.3 μM). The concentrations used here were based on the results from FIG. 5 and a recent study performed in the hippocampus (Liu et al., 2004). Application of NVP-AAMO77 depressed total NMDAR-mediated currents by 63.2±1.7% and the addition of Ro25-6981 to the same neuron further reduced currents by 13.7±1.4% (n=6) in the ACC (FIG. 6). […]

Which results are given for `C[C@@H](CN1CCC(Cc2ccccc2)CC1)[C@@H](O)c1ccc(O)cc1` [Ro25-6981]?
potentiation after EPSPs-APs protocol, % of baseline (adult ACC neurons [1]): 114.4±11.5%; effect on LTP induced by EPSPs-APs protocol (adult ACC neurons [1]; FIG. 4B): blocked; LTP after TBS, % of baseline (adult ACC neurons [2]): 105.5±8.3%; effect on LTP induced by TBS (adult ACC neurons [2]; FIG. 4E): blocked; further reduction of total NMDAR-mediated currents ([3]; 0.3 μM Ro25-6981 added to the same neuron after 0.4 μM NVP-AAM077): 13.7±1.4%; depression of total NMDAR-mediated currents ([3]; 0.3 μM, applied alone or first): 18.0±1.9%; depression of total NMDAR-mediated currents ([3]; 3 μM): 18.1±3.4%; effect on total NMDAR-mediated currents ([3]; bath application of different doses, FIG. 5): depressed
